# In patent publication US9994852B2, “Oligonucleotide compositions and uses thereof” (MIRAGEN THERAPEUTICS, INC., priority 2015, dated 2018):
# “Also recorded” adds a separate entry of the source. l = locked nucleic acid (LNA); d = 2'-deoxy (DNA)
# Key:
# Format in all cases: cell-based, human
# miR-155 = assay: Dual luciferase reporter assay with miR-155 binding site in HeLa cells; settings: 10 nM miR-155 mimic, 2 nM oligonucleotide
# Description: To assess the activity of a miR-155 inhibitor, a dual luciferase reporter assay system was used. In brief, the binding site for miR-155 was cloned into the 3′ UTR of the Renilla luciferase gene located within the commercially-available psiCHECK-2 vector system (Promega). In the absence of a miR-155 inhibitor, the expression of Renilla luciferase protein is repressed by a miR-155 mimic. In the presence of a miR-155 inhibitor, the expression of Renilla luciferase protein is de-repressed. […] Expression of either Renilla or firefly luciferase is measured through detection of light emitted by the luciferase protein.
# 50 ng of the dual luciferase reporter plasmid containing the miR-155 binding site was transfected into HeLa cells without a miR-155 mimic (“Reporter” only), with 10 nM miR-155 mimic (“Reporter+mimic”), with 10 nM miR-155 mimic and 2 nM of the control oligonucleotide, or with 10 nM miR-155 mimic and 2 nM of a test miR-155 oligonucleotide inhibitor of 11-14 nucleotide lengths (Table 4). The miR-155 mimic was purchased from Dharmacon (miRIDIAN microRNA Human hsa-miR-155-5p mimic; Accession number MIMAT0000646; catalog # C-300647-05-0005) and contains the mature miRNA sequence: -[…]- (SEQ ID NO: 121). The control oligonucleotide used in the experiment had the following sequence: 5′-lCs.dTs.dAs.lGs.dAs.lAs.dAs.lGslAs.dGs.lTs.dAs.lGs.lA-3′ (SEQ ID NO: 122).
# My-La cells [1] = assay: Proliferation of My-La cells (ATP)
# Method: (§1) FIGS. 17A and 17B show proliferation and activation of caspase 3/7 over time with compounds 3 (SEQ ID NO: 23) and 4 (SEQ ID NO: 25).
# (§2) In addition to a time course, a dose titration of antimiR-155 compounds in My-La cells was performed with ATP and caspase 3/7 measurements after eight days of treatment (FIGS. 18A and 18B, respectively).
# HuT102 cells [2] = assay: Proliferation of HuT102 cells (cell number by ATP level); settings: for proliferation (cell number by ATP): over time
# Method: (§3) Since the level of ATP correlates directly with cell number, ATP was measured to determine the cell number. […] The reduction in cell number was accompanied by an increase in apoptosis as measured by caspase 3/7 activity (FIG. 14B). The caspase 3 and 7 proteins are members of the cysteine aspartic acid-specific protease (caspase) family. The caspase family plays key effector roles in apoptosis in mammalian cells. Caspase activity was normalized to ATP levels, as all cells have a low level of basal caspase activity that can confound the results if not normalized appropriately.
# (§4) In addition to a time course, a dose titration of antimiR-155 compounds in HuT102 cells was performed with ATP and caspase 3/7 measurements performed after eight days of treatment (FIGS. 15A and 15B, respectively).
# HuT102 cells [3] = assay: Apoptosis by caspase 3/7 activity in HuT102 cells; settings: for apoptosis (caspase 3/7 activity normalized to ATP): over time
# Method: as §3, §4
# miR-155-5p [4] = assay: Real time PCR of miR-155 direct target genes in CTCL cell lines treated with antimiR-155 (passive uptake); settings: for target de-repression: HuT102 and MyLa cell lines; for antimiR activity by four-gene signature (Bach1, Jarid2, Picalm, Ship1): cumulative data across 2 μM, 50 μM and three mycosis fungoides cell lines; for antimiR activity by four-gene signature (Bach1, Jarid2, Picalm, Ship1) / gene expression signature of four direct targets of miR-155-5p vs untreated cells: 10 μM; for gene expression signature of four direct targets of miR-155-5p vs untreated cells: MJ and HuT102 cells, 72 hours
# Method: CTCL cell lines were cultured in complete growth medium with the addition of antimiR-155 compound 1 (SEQ ID NO: 27), compound 2 (SEQ ID NO: 22), compound 3 (SEQ ID NO: 23), and compound 4 (SEQ ID NO: 25) at concentrations ranging from 2 μM to 50 μM. The antimiRs were added to the medium without any additional components to enhance cellular uptake. Cells were harvested after 72 hours of treatment and total RNA was purified. Real time PCR was performed for 13 direct gene targets of miR-155 (Worm et al. 2009; O'Connell et al. 2010; Zhang et al. 2012; and miRagen unpublished data). The relative fold-change in the expression of the 13 genes in the antimiR-treated cells compared to the untreated cells was calculated. […] Four predicted direct targets that lacked expression in at least one cell line were omitted. The gene expression fold-changes were log 10-transformed, plotted on a grayscale, representing the highest relative increase in gene expression, and conversely, the greatest reduction in gene expression.
# Four direct gene targets of miR-155-5p (Bach1, Jarid2, Picalm, and Ship1) were chosen for additional analysis, as these four genes were modulated by antimiR-155 in all three mycosis fungoides cell lines (MJ, HuT102, and My-La). These genes were chosen to represent the gene expression signature for antimiR activity in vitro. Additionally, the four-gene signature was used to compare the activity of the antimiR compounds. These gene changes were reproducible over three independent experiments with cells of varying passage numbers. FIGS. 3, 4, 5, 6, and 7 show the fold-change results of this four-gene signature in the HuT102, MJ, HH, My-La, and Hut78 cell lines, respectively. * p-value<0.0001 vs untreated by nonparametric Mann-Whitney test. The Mann-Whitney test was chosen because the variances are unequal between the treatments compared to untreated cells.
# The control oligonucleotide was a 14-nucleotide antimiR targeting a C. elegans miRNA not expressed in mammals (control 1). The second oligo is a scramble of the 14-nucleotide sequence of antimiR-155 compound 4 (control 2). The MJ and HuT102 cell lines were incubated with 10 μM antimiR-155 compounds 3 (SEQ ID NO: 23) or 4 (SEQ ID NO: 25) or the two control oligos for 72 hours.
# My-La cells [5] = assay: Caspase 3/7 activity in My-La cells; settings: over time
# Method: as §1, §2
# HuT102 cells [6] = assay: AntimiR-155 combined with HDAC inhibitor SAHA: caspase 3/7 activity in HuT102 cells; settings: 10 μM compound combined with 0.25 or 0.5 μM SAHA
# Method: Vorinostat (chemical name: SAHA) is a standard-of-care epigenetic therapy for patients with advanced mycosis fungoides. However, the side-effects of pan-HDAC inhibitors are well-described. To determine whether a combination therapy might show enhanced activity compared to treatment with individual compounds, HuT102 cells were treated with a sub-efficacious dose of SAHA combined with antimiR-155.
# HuT102 cells were treated with 0.25 μM SAHA and 10 μM compound 3 (SEQ ID NO: 23) or 4 (SEQ ID NO: 25), individually or in combination. Cells were harvested daily to measure ATP levels and caspase 3/7 activity. A similar experiment was performed with 0.50 μM SAHA.
# FIGS. 20A and 20B show the effect on caspase 3/7 activity.
# miR-155-5p [7] = assay: Whole genome expression profiling of CTCL cell lines treated with antimiR-155
# Method: To gain a more complete understanding of the molecular consequences of miR-155 inhibition in mycosis fungoides cell lines, whole genome transcriptome profiling was performed on MJ and HuT102 cell lines treated with antimiR-155 compounds 3 (SEQ ID NO: 23) or 4 (SEQ ID NO: 25) for 4 days (96 hours) or 8 days. The statistically-significant gene expression signature was defined by one-way ANOVA for antimiR-treated cells compared to untreated cells at the same time point. […] The fold-change results are shown in FIGS. 9 and 10 as heat maps, as described for FIG. 2.
# The gene expression profile common to both cell lines and both compounds at Day 4 was analyzed for the enrichment of miR-155-5p seed-matched gene targets (8-, 7-, and 6-nucleotide binding sites). The fold-change of these genes is represented in a heat map in FIG. 11. […] The gene signature was also analyzed using the DAVID bioinformatic resource for functional gene annotation enrichment (Huang da et al., 2009). There was no significant enrichment of Gene Ontology database terms as defined by a Benjamini-corrected p-value of <0.01.
# The gene expression signature common to both cell lines and both compounds at Day 8 (677 genes in total) was subjected to analysis for enrichment of seed-matched gene targets and for functional gene annotation.
# The activity of antimiR-155 compound 4 (SEQ ID NO: 25) was further investigated by treating the third mycosis fungoides cell line, MyLa, with compound 4 (SEQ ID NO: 25) for 4 days and 8 days and profiling the changes in gene expression. To test the specificity of compound 4 (SEQ ID NO: 25), cells of the Sézary syndrome cell line (HuT78) were treated with compound 4 (SEQ ID NO: 25) for 8 days and the changes in gene expression were profiled. Genes that are statistically changed with a false discovery rate (FDR) corrected p-value of <0.05 in response to compound 4 (SEQ ID NO: 25) in three mycosis fungoides cell lines, HuT102, MJ, and My-La, are depicted in the heat map as described above. The total number of genes in the heat map is 324. […]
Substance,de-repression of Renilla luciferase expression (miR-155),proliferation (ATP) (My-La cells [1]; over time),proliferation (cell number by ATP) (HuT102 cells [2]),apoptosis (caspase 3/7 activity normalized to ATP) (HuT102 cells [3]),target de-repression (miR-155-5p [4]),"antimiR activity by four-gene signature (Bach1, Jarid2, Picalm, Ship1) (miR-155-5p [4])",activation of caspase 3/7 (My-La cells [5]),"proliferation (ATP) (My-La cells [1]; dose titration, eight days of treatment)",apoptosis (caspase 3/7 activity) (HuT102 cells [6]),proliferation (ATP) (HuT102 cells [2]; day 8 of treatment),caspase 3/7 activity (HuT102 cells [3]; day 8 of treatment),apoptosis (caspase 3/7 activity normalized to ATP) (HuT102 cells [3]; listed as Compound 4),gene expression signature of four direct targets of miR-155-5p vs untreated cells (miR-155-5p [4]),"number of genes up- or down-regulated in all three mycosis fungoides cell lines (Table 2) (miR-155-5p [7]; HuT102, MJ, MyLa, Day 4 or Day 8)","magnitude of gene regulation (whole genome heat map) (miR-155-5p [7]; MJ and HuT102 cells, 4 days and 8 days)","change in gene expression (miR-155-5p [7]; Sézary syndrome cell line HuT78, 8 days)"
"5′-lCs.dTs.dAs.lGs.dAs.lAs.dAs.lGslAs.dGs.lTs.dAs.lGs.lA-3′ (CTAGAAAGAGTAGA; sugars from the 5' end lddldldlldldll, all phosphorothioate, methylation of C not given here) [control oligonucleotide, control oligonucleotide used in the dual luciferase reporter experiment]",did not de-repress the expression of luciferase,,,,,,,,,,,,,,,
"5′-lCs.dGs.lAs.lTs.lTs.lAs.lGs.dCs.lAs.lTs.lTs.lA-3′ (CGATTAGCATTA; sugars from the 5' end l1 d1 l5 d1 l4, all phosphorothioate, methylation of C not given here) [compound 2]",,greater inhibition of proliferation,greater inhibition of proliferation,greater apoptotic activity,greater target de-repression than antimiR-155 compound 3 (SEQ ID NO: 23),more active than compounds 1 (SEQ ID NO: 27) and 3 (SEQ ID NO: 23),greater apoptotic activity,,,,,,,,,
"5′-lCs.dAs.lCs.dGs.dAs.lTs.lTs.dAs.lGs.dCs.lAs.lTs.lTs.lA-3′ (CACGATTAGCATTA; sugars from the 5' end ldlddlldldllll, all phosphorothioate, methylation of C not given here) [compound 4]",,greater inhibition of proliferation; also recorded: greater activity compared to compound 3 (SEQ ID NO: 23),greater inhibition of proliferation; also recorded: comparable to that seen with bexarotene,greater apoptotic activity,greater target de-repression than antimiR-155 compound 3 (SEQ ID NO: 23),more active than compounds 1 (SEQ ID NO: 27) and 3 (SEQ ID NO: 23),greater apoptotic activity; also recorded: greater activity compared to compound 3 (SEQ ID NO: 23),further confirm the inhibitory potential,increased apoptosis compared to each treatment alone,confirm the inhibitory potential,confirm the inhibitory potential,greater induction of apoptosis than bexarotene,statistically significantly different from that of untreated cells,587,greater magnitude of gene regulation in both cell lines and at both time points,did not show much change in the gene expression
"5′-lCs.dGs.lAs.lTs.lTs.dAs.lGs.dCs.lAs.lTs.lTs.lA-3′ (CGATTAGCATTA; sugars from the 5' end ldllldldllll, all phosphorothioate, methylation of C not given here) [compound 3]",,,,,,,,,,,,,statistically significantly different from that of untreated cells,,,
